# BindingDB's records for doi:10.1016/j.bmcl.2003.10.011 (University of Hamburg, 2003)
# Biological target: Alpha-galactosidase (Aspergillus niger)
# Test: Compound tested for inhibition of alpha-galactosidase from Aspergillus niger
smiles,measurement,value
"N[C@@H](COC[C@H]1O[C@@H](O)[C@H](O)[C@H](O)[C@@H]1O)C(=O)O [2-Amino-3-(3,4,5,6-tetrahydroxy-tetrahydro-pyran-2-ylmethoxy)-propionic acid]",Ki,400 µM
"C[C@@H](OC[C@H]1O[C@@H](O)[C@H](O)[C@H](O)[C@@H]1O)[C@H](N)C(=O)O [2-(R)-Amino-3-(3,4,5,6-tetrahydroxy-tetrahydro-pyran-2-ylmethoxy)-butyric acid]",Ki,300 µM
